Inconclusive results are not listed.
Tested on: BDF1 mice, s.c. Lewis lung carcinoma, T/C %
Experiment: NCI In Vivo Anticancer Drug Screen. Data for tumor model Lewis Lung Carcinoma (subcutaneous) in B6D2F1 (BDF1) mice
Outline: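 Antitumor effect in vivo is scored from survival or tumor burden, reported as treated relative to vehicle controls.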

[1] = endpoint: mean tumor weight, dose: 300.0 mg/kg/injection, schedule: Q01DX011 (ip), vehicle: carboxymethylcellulose (CMC), higher = larger tumour

In the case of `COC(=O)c1ccccc1NC(c1ccccn1)c1ccc2cccnc2c1O` (configuration not stated), the T/C (endpoint: mean tumor weight, dose: 10.0 mg/kg/injection, schedule: Q01DX011 (ip), vehicle: carboxymethylcellulose (CMC), higher = larger tumour) is reported as 55 % of control, the T/C (endpoint: mean tumor weight, dose: 25.0 mg/kg/injection, schedule: Q01DX011 (ip), vehicle: carboxymethylcellulose (CMC), higher = larger tumour) is reported as 111 % of control and the T/C (endpoint: mean tumor weight, dose: 37.0 mg/kg/injection, schedule: Q01DX011 (ip), vehicle: carboxymethylcellulose (CMC), higher = larger tumour) is reported as 115 % of control. The T/C (endpoint: mean tumor weight, dose: 50.0 mg/kg/injection, schedule: Q01DX011 (ip), vehicle: carboxymethylcellulose (CMC), higher = larger tumour) was 56 % of control, the T/C (endpoint: mean tumor weight, dose: 62.0 mg/kg/injection, schedule: Q01DX011 (ip), vehicle: carboxymethylcellulose (CMC), higher = larger tumour) was 30 % of control and the T/C (endpoint: mean tumor weight, dose: 70.0 mg/kg/injection, schedule: Q01DX011 (ip), vehicle: carboxymethylcellulose (CMC), higher = larger tumour) was 78 % of control. The T/C (endpoint: mean tumor weight, dose: 75.0 mg/kg/injection, schedule: Q01DX011 (ip), vehicle: carboxymethylcellulose (CMC), higher = larger tumour) was 86 % of control, the T/C (endpoint: mean tumor weight, dose: 125.0 mg/kg/injection, schedule: Q01DX011 (ip), vehicle: carboxymethylcellulose (CMC), higher = larger tumour) was 33 % of control and the T/C (endpoint: mean tumor weight, dose: 150.0 mg/kg/injection, schedule: Q01DX011 (ip), vehicle: carboxymethylcellulose (CMC), higher = larger tumour) was 80 % of control. The T/C (endpoint: mean tumor weight, dose: 250.0 mg/kg/injection, schedule: Q01DX011 (ip), vehicle: carboxymethylcellulose (CMC), higher = larger tumour) was 76 % of control, the T/C [1] was 62 % of control and the T/C (endpoint: mean tumor weight, dose: 500.0 mg/kg/injection, schedule: Q01DX011 (ip), vehicle: carboxymethylcellulose (CMC), higher = larger tumour) was 53 % of control.

In the case of `CC1(C)CCC(NC(=O)N(CCF)N=O)CC1`, the T/C (endpoint: median survival time, dose: 6.0 mg/kg/injection, schedule: Q01DX009 (ip), vehicle: saline with Tween-80, higher = longer survival) is reported as 97 % of control, the T/C (endpoint: median survival time, dose: 9.0 mg/kg/injection, schedule: Q01DX009 (ip), vehicle: saline with Tween-80, higher = longer survival) is reported as 113 % of control and the T/C (endpoint: median survival time, dose: 20.0 mg/kg/injection, schedule: Q01DX009 (ip), vehicle: saline with Tween-80, higher = longer survival) is reported as 265 % of control. For the same molecule, the T/C (endpoint: median survival time, dose: 30.0 mg/kg/injection, schedule: Q01DX009 (ip), vehicle: saline with Tween-80, higher = longer survival) was 236 % of control and the T/C (endpoint: median survival time, dose: 50.0 mg/kg/injection, schedule: Q01DX009 (ip), vehicle: saline with Tween-80, higher = longer survival) was 88 % of control.

In the case of `CCCCCCCCCCCCCCCCCCOC(=O)CCSCCC(=O)OCCCCCCCCCCCCCCCCCC`, the T/C (endpoint: mean tumor weight, dose: 133.0 mg/kg/injection, schedule: Q01DX011 (ip), vehicle: carboxymethylcellulose (CMC), higher = larger tumour) is reported as 117 % of control, the T/C (endpoint: mean tumor weight, dose: 200.0 mg/kg/injection, schedule: Q01DX011 (ip), vehicle: carboxymethylcellulose (CMC), higher = larger tumour) is reported as 88 % of control and the T/C [1] is reported as 101 % of control. For the same molecule, the T/C (endpoint: mean tumor weight, dose: 450.0 mg/kg/injection, schedule: Q01DX011 (ip), vehicle: carboxymethylcellulose (CMC), higher = larger tumour) was 86 % of control, the T/C (endpoint: mean tumor weight, dose: 500.0 mg/kg/injection, schedule: Q01DX011 (ip), vehicle: other, higher = larger tumour) was 165 % of control and the T/C (endpoint: mean tumor weight, dose: 750.0 mg/kg/injection, schedule: Q01DX011 (ip), vehicle: other, higher = larger tumour) was 121 % of control.

For `C=C(C(=O)O)C(=O)O`, the T/C (endpoint: median survival time, dose: 50.0 mg/kg/injection, schedule: Q01DX009 (ip), vehicle: saline, higher = longer survival) was 105 % of control, the T/C (endpoint: median survival time, dose: 100.0 mg/kg/injection, schedule: Q01DX009 (ip), vehicle: saline, higher = longer survival) was 105 % of control and the T/C (endpoint: median survival time, dose: 200.0 mg/kg/injection, schedule: Q01DX009 (ip), vehicle: saline, higher = longer survival) was 103 % of control.

With `O=c1cc(-c2ccccc2)oc2cccc(O)c12` the T/C (endpoint: mean tumor weight, dose: 50.0 mg/kg/injection, schedule: Q01DX010 (ip), vehicle: saline, higher = larger tumour) was 73 % of control, the T/C (endpoint: mean tumor weight, dose: 100.0 mg/kg/injection, schedule: Q01DX010 (ip), vehicle: saline, higher = larger tumour) was 70 % of control and the T/C (endpoint: mean tumor weight, dose: 200.0 mg/kg/injection, schedule: Q01DX010 (ip), vehicle: saline, higher = larger tumour) was 82 % of control. For the same molecule, the T/C (endpoint: mean tumor weight, dose: 400.0 mg/kg/injection, schedule: Q01DX010 (ip), vehicle: saline, higher = larger tumour) was 67 % of control.

For `COc1c(Cl)cc2c(c1OC)N(C)C1N3C(=O)C4(C)SSC3(C(=O)N4C)C(O)C21O` (configuration not stated), the T/C (endpoint: median survival time, dose: 0.12 mg/kg/injection, schedule: Q01DX009 (ip), vehicle: Klucel (hydroxypropylcellulose) (HPC), higher = longer survival) was 96 % of control, the T/C (endpoint: median survival time, dose: 0.25 mg/kg/injection, schedule: Q01DX009 (ip), vehicle: Klucel (hydroxypropylcellulose) (HPC), higher = longer survival) was 94 % of control and the T/C (endpoint: median survival time, dose: 0.5 mg/kg/injection, schedule: Q01DX009 (ip), vehicle: Klucel (hydroxypropylcellulose) (HPC), higher = longer survival) was 96 % of control.

In the case of `CCCC1CCC(=C2C(=O)CCC2=O)O1` (configuration not stated), the T/C (endpoint: median survival time, dose: 3.13 mg/kg/injection, schedule: Q01DX009 (ip), vehicle: saline, higher = longer survival) is reported as 102 % of control, the T/C (endpoint: median survival time, dose: 6.25 mg/kg/injection, schedule: Q01DX009 (ip), vehicle: saline, higher = longer survival) is reported as 111 % of control and the T/C (endpoint: median survival time, dose: 12.5 mg/kg/injection, schedule: Q01DX009 (ip), vehicle: saline, higher = longer survival) is reported as 105 % of control. The T/C (endpoint: median survival time, dose: 25.0 mg/kg/injection, schedule: Q01DX009 (ip), vehicle: saline, higher = longer survival) was 101 % of control.
